How the values were obtained:
Cathepsin K = biological target: T1, Cathepsin K (Homo sapiens, UniProt P43235); test: Inhibition of human recombinant cathepsin K
T1 sequence (P43235 whole entry): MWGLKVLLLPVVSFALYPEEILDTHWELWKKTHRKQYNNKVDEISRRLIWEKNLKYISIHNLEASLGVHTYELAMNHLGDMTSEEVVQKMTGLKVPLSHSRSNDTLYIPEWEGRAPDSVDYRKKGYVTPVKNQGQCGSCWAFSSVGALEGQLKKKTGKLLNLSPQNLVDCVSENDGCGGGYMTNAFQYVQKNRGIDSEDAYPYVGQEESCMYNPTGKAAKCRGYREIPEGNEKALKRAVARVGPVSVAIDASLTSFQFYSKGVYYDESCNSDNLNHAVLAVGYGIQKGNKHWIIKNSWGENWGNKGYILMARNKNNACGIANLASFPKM

Procathepsin L = Procathepsin L (Homo sapiens, UniProt P07711); test: Inhibition of human recombinant cathepsin L
Sequence of Procathepsin L (P07711 whole entry): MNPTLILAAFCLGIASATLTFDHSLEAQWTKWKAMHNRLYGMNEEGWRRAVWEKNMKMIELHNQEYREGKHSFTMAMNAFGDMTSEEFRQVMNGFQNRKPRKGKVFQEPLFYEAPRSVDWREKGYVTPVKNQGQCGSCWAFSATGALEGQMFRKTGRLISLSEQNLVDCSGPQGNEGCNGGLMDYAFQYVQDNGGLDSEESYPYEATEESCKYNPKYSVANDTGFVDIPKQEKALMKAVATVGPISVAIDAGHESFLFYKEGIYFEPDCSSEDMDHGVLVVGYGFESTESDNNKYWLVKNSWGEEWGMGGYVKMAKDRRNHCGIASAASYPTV

Cathepsin S = Cathepsin S (Homo sapiens, UniProt P25774); test: Inhibition of human recombinant cathepsin S
Sequence of Cathepsin S (P25774 whole entry): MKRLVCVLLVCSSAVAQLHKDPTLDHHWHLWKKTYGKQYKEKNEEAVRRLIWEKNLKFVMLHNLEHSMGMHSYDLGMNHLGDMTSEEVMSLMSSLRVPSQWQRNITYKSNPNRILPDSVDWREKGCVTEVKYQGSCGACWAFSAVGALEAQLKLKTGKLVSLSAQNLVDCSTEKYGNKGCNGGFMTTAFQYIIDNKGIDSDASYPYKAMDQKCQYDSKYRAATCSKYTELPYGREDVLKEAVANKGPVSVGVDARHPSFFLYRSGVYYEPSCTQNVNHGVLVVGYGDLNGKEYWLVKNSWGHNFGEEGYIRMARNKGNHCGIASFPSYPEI

[1] = Half life in rat at 4 uM/kg, iv and 10 uM/kg, po; type: ADME, organism-based; settings: in vivo
[2] = Clearance in rat at 4 uM/kg, iv and 10 uM/kg, po; type: ADME, organism-based; settings: in vivo

Structure (SMILES)	IC50 (Cathepsin K)	IC50 (Procathepsin L)	IC50 (Cathepsin S)	half-life [1]	clearance [2]
N#Cc1ncc(C(=O)NCCc2ccc(N3CCCC3)cc2)c(NC2CCCCC2)n1	0.75 µM	5.1 µM	2.3 µM		
CC(C)(C)CNc1nc(C#N)ncc1C(=O)NCCc1ccc(OCCn2ccnc2)cc1	0.003 µM	0.52 µM	0.9 µM	48 min	462 mL/min/kg
COc1ccc(CCNC(=O)c2cnc(C#N)nc2NC2CCCCC2)cc1	0.022 µM	0.17 µM	0.7 µM		
N#Cc1cccc(NC2CCCCC2)n1	1 µM				
N#Cc1cncc(NC2CCCCC2)n1	> 1 µM				
N#Cc1cccc(NC2CCCCC2)c1	> 1 µM				
CN1CCN(c2ccc(CCNC(=O)c3cnc(C#N)nc3NC3CCCCC3)cc2)CC1	0.047 µM	0.45 µM	0.48 µM		
COc1ccc(CCNC(=O)c2cnc(C#N)nc2NCC(C)(C)C)cc1	< 0.003 µM	0.34 µM	1.6 µM		
CN1CCN(c2ccc(CCNC(=O)c3cnc(C#N)nc3NCC(C)(C)C)cc2)CC1	0.025 µM	3.9 µM	3.1 µM		
N#Cc1nccc(NC2CCCCC2)n1	0.17 µM				
COc1cccc(CCNC(=O)c2cnc(C#N)nc2NCC(C)(C)C)c1	< 0.003 µM	1.2 µM	0.9 µM		
N#Cc1ccnc(NC2CCCCC2)n1	0.12 µM				
CC(C)(C)CNc1nc(C#N)ncc1C(=O)NCCc1ccc(N2CCCC2)cc1	0.3 µM	> 10 µM	> 10 µM		
CN1CCN(Cc2ccc(CCNC(=O)c3cnc(C#N)nc3NCC(C)(C)C)cc2)CC1	0.011 µM	0.33 µM	2.5 µM		
CC(C)(C)CNc1nc(C#N)ncc1C(=O)NCCc1cccc(OCCn2ccnc2)c1	0.003 µM	0.68 µM	0.51 µM		
COc1cccc(CCNC(=O)c2cnc(C#N)nc2NC2CCCCC2)c1	0.009 µM	0.31 µM	0.23 µM		
N#Cc1ncc(C(=O)NCCc2ccccc2)c(NC2CCCCC2)n1	0.01 µM	1.1 µM	0.13 µM		
CN1CCN(c2cccc(CCNC(=O)c3cnc(C#N)nc3NCC(C)(C)C)c2)CC1	0.011 µM	0.82 µM	1.8 µM		
COc1ccc(CCNC(=O)c2cnc(C#N)nc2NCC(C)(C)C)cc1OCCn1ccnc1	0.031 µM	0.58 µM	2.6 µM		
CN1CCC(Oc2ccc(CCNC(=O)c3cnc(C#N)nc3NCC(C)(C)C)cc2)CC1	0.013 µM	1.7 µM	10 µM		
